From publication PMC4339887, “Selective Sirt2 inhibition by ligand-induced rearrangement of the active site” (Nature Communications, 2015)
pIC50: −log10 of the molar value. “Also recorded” adds a separate entry of the source.

Columns and labels:
[1] = system: acetylation of the microtubule network in HeLa cells; experiment: immunofluorescence microscopy of acetylated microtubule network; type: cell-based; conditions: 4 h
Description: Cells were then stained with an anti-acetyl-α-tubulin antibody (Sigma-Aldrich, T6793) and then probed with a secondary Alexa 546 conjugated anti-mouse-antibody (Invitrogen). Nuclei were counterstained with DAPI (4',6-diamidino-2-phenylindole). Coverslips were mounted with FluoroMount (Sigma-Aldrich) and sealed with DPX Mountant (Sigma-Aldrich). Images of the mounted samples were acquired on a Leica DM500 microscope equipped with a Leica DFC 395 FX camera and HBO 100 W lamp[40]. The microscope was run with the Leica Application Suite 4.4.0 software. Chroma UV filter set (No. C40888) and Leica N2.1 filter set (No. 513832) were used for DAPI and Alexa 546 signal acquisition, respectively, with a HCX FL Fluotar 40x/0.75 (dry) objective. Further details about the equipment and the settings that were used to acquire the images are found in the Supplementary Methods section. Unprocessed images are found in Supplementary Fig. 9. […]
Immunocytochemistry equipment and settings. The signal of Alexa 546 and DAPI of the same region were acquired with constant illumination parameters as grayscale 8-bit 600 dpi tiff files (1600u 1200 pixels). Alexa 546 was acquired after 639.1 ms with a gamma factor of 0.65 without multiplying. The gain was set to 1. DAPI-stained images were acquired after about 20 ms with the same parameters as the one for Alexa 546 image acquisition. The temperature in the microscope room was kept at RT. Representative regions of each samples were processed with Adobe Photoshop CS2 to generate images in RGB mode by copying the appropriate original greyscale images to the blue (nuclei, DAPI) and the red (acetylated D-tubulin signal, Alexa 546) channel, respectively. As adjustment, a minimal background subtraction was applied on all images during processing in the same manner. The resolution was changed from 600 dpi (source images) to 450 dpi without resampling (Fig. 7 of the main article). LUT (CLUT) of grayscale images of the acetylated D-tubulin signal and of the DAPI signal are shown in Supplementary Fig. 8. […]

human Sirt2 = biological target: T1, human Sirt2 (Homo sapiens, UniProt Q8IXJ6); experiment: fluorescence-based in vitro sirtuin assay, substrate ZMAL
T1 sequence (Q8IXJ6 25-389): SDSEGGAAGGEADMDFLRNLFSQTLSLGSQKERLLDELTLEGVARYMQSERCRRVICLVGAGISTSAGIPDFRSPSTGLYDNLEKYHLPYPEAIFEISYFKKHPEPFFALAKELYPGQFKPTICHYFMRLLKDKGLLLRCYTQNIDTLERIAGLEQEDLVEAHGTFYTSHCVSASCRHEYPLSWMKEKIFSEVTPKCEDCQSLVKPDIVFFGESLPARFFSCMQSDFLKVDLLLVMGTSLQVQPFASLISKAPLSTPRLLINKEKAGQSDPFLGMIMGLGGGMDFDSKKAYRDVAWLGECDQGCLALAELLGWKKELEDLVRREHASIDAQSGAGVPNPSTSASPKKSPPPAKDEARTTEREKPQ

[2] = system: α-tubulin acetylation in HeLa cells; experiment: tubulin acetylation, western blot; type: cell-based; conditions: various concentrations, 5 h
Description: Cell samples were then separated using SDS–PAGE (12.5% (w/v) polyacrylamide), transferred to an activated nitrocellulose membrane (Bio-Rad), blocked with non-fat dry milk (Roth, 5% (w/v), TBS, 0.1% (v/v) Tween 20) and probed with an anti-acetyl-α-tubulin antibody (1:1,000, Sigma-Aldrich, T6793) and an anti-GAPDH antibody (1:2,000–1:5,000, Sigma-Aldrich, G9545) as a loading control (Fusion SL, peqlab). An uncropped blot is shown in Supplementary Fig. 8.

[3] = system: p53-Lys382-acetylation in U2OS cells; experiment: p53 acetylation after ultraviolet exposure, western blot; type: cell-based; conditions: 1 h pretreatment, 20 J cm^-2 UV, further 6 h
Method: U2OS cells (ATCC accession no. HTB-96) were seeded and cultured until they reached 90% confluency. […] Cells were incubated for an additional 6 h in the presence of the inhibitor and then lysed in IPLS (50 mM Tris/HCl, 150 mM NaCl; 0.5 mM EDTA; 0.5% (v/v) NP-40; 1 × Complete Protease Inhibitors (Roche), pH 8.0) and resuspended in 1 × Laemmli Buffer. Samples were then separated on SDS–PAGE, transferred to a nitrocellulose membrane (Bio-Rad), blocked with non-fat dry milk (Roth, 5% (w/v), TBS, 0.1% (v/v) Tween 20) and probed with anti-acetyl-p53 K382 (Cell Signaling, #2522), anti-p53 DO.1 (Santa Cruz Biotechnology, sc-126) and anti-vinculin (Cell Signaling, #4650) as a loading control. Uncropped blots are shown in the Supplementary Fig. 10.

BubR1 in HeLa cells = experiment: abundance of BubR1, western blot; type: cell-based; conditions: various concentrations, 16 h
Method: Cells were washed with PBS, lysed in IPLS (50 mM Tris/HCl, 150 mM NaCl, 0.5 mM EDTA, 0.5% (v/v) NP-40, pH 7.5, supplemented with Complete protease inhibitors (Roche)). Samples were pelleted and resuspended in 1 × SDS–PAGE sample buffer and heated (95 °C, 5 min). Cell samples were separated using SDS–PAGE (10% (w/v) polyacrylamide), transferred to a nitrocellulose membrane (Bio-Rad), blocked with non-fat dry milk (Roth, 5% (w/v), TBS, 0.1% (v/v) Tween 20) and probed with the anti-BubR1 (1:5,000, BD Biosciences, 612502) and anti-tubulin (1:5,000, Sigma-Aldrich, T5168) as a loading control. Uncropped blots are shown in the Supplementary Fig. 8.

human Sirt1 = biological target: T2, human Sirt1 (Homo sapiens, UniProt Q96EB6); experiment: fluorescence-based in vitro sirtuin assay, substrate ZMAL; conditions: at 50 μM
T2 sequence (Q96EB6 133-747): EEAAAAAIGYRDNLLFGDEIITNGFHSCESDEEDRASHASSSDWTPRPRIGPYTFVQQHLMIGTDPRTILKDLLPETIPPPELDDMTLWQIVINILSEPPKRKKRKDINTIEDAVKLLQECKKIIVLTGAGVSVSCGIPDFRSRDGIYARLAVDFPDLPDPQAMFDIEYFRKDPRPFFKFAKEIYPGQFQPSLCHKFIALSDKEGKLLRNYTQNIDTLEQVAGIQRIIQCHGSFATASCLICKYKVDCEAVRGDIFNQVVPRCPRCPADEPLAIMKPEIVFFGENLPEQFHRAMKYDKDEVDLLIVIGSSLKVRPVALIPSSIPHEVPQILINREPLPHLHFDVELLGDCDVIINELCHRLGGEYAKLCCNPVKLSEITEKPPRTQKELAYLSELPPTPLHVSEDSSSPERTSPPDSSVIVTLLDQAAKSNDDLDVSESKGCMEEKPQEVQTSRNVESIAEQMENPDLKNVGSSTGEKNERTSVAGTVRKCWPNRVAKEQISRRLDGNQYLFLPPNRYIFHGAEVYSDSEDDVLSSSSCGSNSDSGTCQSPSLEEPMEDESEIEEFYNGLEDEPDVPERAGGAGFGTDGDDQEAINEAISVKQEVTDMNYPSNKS

Sirt1 = system: Sirt1; set-up: method as in earlier work; conditions: selectivity profile, Sirt1 entry; ref 2-9 (supplementary references); cited from earlier work
Sirt3 = system: Sirt3; set-up: method as in earlier work; conditions: selectivity profile, Sirt3 entry; † inhibition substrate-dependent; ref 2-9 (supplementary references); cited from earlier work
Sirt2 = biological target: Sirt2; set-up: method as in earlier work; conditions: ref 2-9 (supplementary references), cited from earlier work
[4] = system: mitochondrial lysine-acetylation in HEK293 cells; experiment: mitochondrial protein acetylation, western blot of mitochondrial extracts; type: cell-based; conditions: 16 h
Method: page 27: Cell cultiva tion. HEK-293 cells (ATCC accession no. CRL-1573) were grown in Dulbecco's modified Eagle's medium (DMEM, PAA) containing 10% (vol/vol) fetal calf serum (FCS, PAA), 1% (vol/vol) penicillin (PAA), 1% (vol/vol) streptomycin (PAA), 1% (vol/vol), L- glutamine (PAA) at 37 °C in a 5% (vol/vol) CO2 atmosphere. Mitochondrial extra ction. HEK-293 cells (ATCC accession no. CRL-1573) were treated with nicotinamide or […]2 at the indicated concentrations for 16 h. Cells were washed in PBS and lysed in 5 packed cell volumes of lysis buffer (20 mM HEPES/KOH, 250 mM sucrose; 10 mM KCl, 1.5 mM MgCl2, 1 mM EDTA, 1 mM EGTA, 1 mM DTT; 0.1 mM PMSF, 1uComplete Protease Inhibitor Cocktail (Roche), pH 7.5). Cells were then homogenized in a Dounce homogenizer and 10% (vol/vol) of sample was removed for use as whole cell extract (WCE). To the remaining lysate, unbroken cells and nuclei were removed by centrifugation (10 min, 800g). The supernatant was transferred and centrifuged (10 min, 7,000g) to pellet mitochondria. Mitochondria were washed twice in lysis buffer, repeating centrifugation after each wash, followed by resuspending washed mitochondria in lysis buffer. […] Lysates were cleared by centrifugation, protein concentrations were quantitated and normalized with 1u Laemmli Buffer. […]

SMILES: Cc1cc(C)nc(SCC(=O)N(C)c2ncc(Cc3cccc4ccccc34)s2)n1 [SirReal6]
- acetylation level of the microtubule network ([1]; 50 μM): does not alter; also recorded: no substantial change
- pIC50 (human Sirt2): < 4.00
- level of α-tubulin acetylation [2]: not
- acetylation of p53 (Lys382) after ultraviolet exposure [3]: did not observe an increase
- abundance of BubR1 (BubR1 in HeLa cells): did not influence

SMILES: Cc1cc(C)cc(SCC(=O)Nc2ncc(Cc3cccc4ccccc34)s2)c1 [SirReal5]
- pIC50 (human Sirt2): < 4.30
- acetylation of p53 (Lys382) after ultraviolet exposure [3]: did not observe an increase
- abundance of BubR1 (BubR1 in HeLa cells): did not influence

SMILES: O=C(CSc1ncccn1)Nc1ncc(Cc2cccc3ccccc23)s1 [SirReal3]
- pIC50 (human Sirt2): 5.64

SMILES: O=C(CSc1ncccn1)Nc1ncc(Cc2ccccc2)s1 [SirReal4]
- pIC50 (human Sirt2): 4.77

SMILES: N#C/C(=C\c1ccc(-c2cc(Cl)ccc2Cl)o1)C(=O)Nc1cccc2ncccc12 [AGK2, reference compound]
- acetylation level of the microtubule network ([1]; 20 μM): hyperacetylation of the microtubule network
- activity of Sirt1 (human Sirt1): not affected

SMILES: O=C(Nc1ccccc1-c1cn2c(CN3CCNCC3)csc2n1)c1cnc2ccccc2n1 [SRT1720]
- Selectivity Sirt1/Sirt2/Sirt3 (fold): Sirt1 (Sirt1): activation
- Selectivity Sirt1/Sirt2/Sirt3 (fold): Sirt3 (Sirt3): 1 fold

SMILES: NC(=O)[C@H]1CCCCc2c1[nH]c1ccc(Cl)cc21 [CHIC-35]
- IC50/kd for Sirt2 (Sirt2; published values, Supplementary Table 1): 2.4 µM
- Selectivity Sirt1/Sirt2/Sirt3 (fold): Sirt2 (Sirt2; selectivity profile, Sirt2 entry): 23 fold
- Selectivity Sirt1/Sirt2/Sirt3 (fold): Sirt1 (Sirt1): 1 fold
- Selectivity Sirt1/Sirt2/Sirt3 (fold): Sirt3 (Sirt3): > 833 fold

SMILES: NC(=O)c1cccnc1 [NCA, nicotinamide, reference compound]
- acetylation of mitochondrial proteins [4]: increase
- acetylation of p53 (Lys382) after ultraviolet exposure [3]: further increased
- acetylation of p53 (Lys382) after ultraviolet exposure ([3]; listed as nicotinamide): increase
